Values of other authors as cited in US20150174160A1, “METHODS FOR TREATING, DIAGNOSING AND/OR MONITORING PROGRESSION OF OXO ASSOCIATED STATES” (priority 2012, published 2015).

Conditions: for 2 years in humans

O=C(O)CCCCC1CCSS1 (stereo not drawn) [ALA, alpha-lipoic acid]
safe dose: up to 2 grams daily
